In ChEMBL document CHEMBL1201862, “PubChem BioAssay data set” (2004):
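Cultured in 96-well plates, cells were exposed to test compound for 48 hours across five concentrations. Abbreviation: GI50, concentration required for 50% inhibition of growth.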 Active and inactive are the calls of the source. Rule as the data show it: active = GI50 up to about 1.1 µM and inactive = higher.

What was measured:
Experiment in all cases: inhibition of tumour cell growth, NCI panel, 48 h
[1] = system: RPMI-8226
[2] = system: K562
[3] = system: SF-539
[4] = system: 786-0
[5] = system: HCT-15
[6] = system: SNB-19
[7] = system: NCI-H226
[8] = system: SW-620
[9] = system: Malme-3M
[10] = system: SK-MEL-5
[11] = system: HOP-92
[12] = system: HOP-62
[13] = system: SNB-75
[14] = system: A549
[15] = system: HCC 2998
[16] = system: Hs-578T
[17] = system: MDA-MB-435
[18] = system: OVCAR-3
[19] = system: OVCAR-8
[20] = system: BT-549
[21] = system: NCI-H23
[22] = system: OVCAR-5
[23] = system: NCI-H460
[24] = system: T47D
[25] = system: CAKI-1
[26] = system: NCI/ADR-RES
[27] = system: UACC-257
[28] = system: MOLT-4
[29] = system: SF-268
[30] = system: SF-295
[31] = system: EKVX
[32] = system: OVCAR-4
[33] = system: CCRF-CEM
[34] = system: SK-MEL-2
[35] = system: MDA-MB-231
[36] = system: MCF7
[37] = system: KM12
[38] = system: COLO 205
[39] = system: U-251
[40] = system: UACC-62
[41] = system: DU-145
[42] = system: UO-31
[43] = system: PC-3
[44] = system: IGROV-1
[45] = system: MDA-N
[46] = system: HT-29
[47] = system: SK-OV-3
[48] = system: HCT-116
[49] = system: M14
[50] = system: SN12C
[51] = system: LOX IMVI
[52] = system: RXF 393
[53] = system: SK-MEL-28
[54] = system: SR
[55] = system: ACHN
[56] = system: HL-60
[57] = system: TK-10
[58] = system: NCI-H522
[59] = system: A498

Measured: GI50

CCCc1cc(=O)oc2c3c(c4c(c12)OC(C)(C)CC4)O[C@H](C)[C@@H](C)[C@H]3O
inactive: [1] 4.82 µM | [2] 2.52 µM | [3] 21.4 µM | [4] 15.7 µM | [6] 16.6 µM | [7] 15.6 µM | [8] 17 µM | [9] 21.9 µM | [10] 15.1 µM | [11] 18.3 µM | [12] 16.6 µM | [13] 16.4 µM | [14] 20 µM | [15] 16.6 µM | [16] 22.6 µM | [17] 11.5 µM | [18] 18.5 µM | [19] 15.5 µM | [20] 13.4 µM | [21] 16 µM | [22] 16.7 µM | [23] 19 µM | [24] 12 µM | [25] 20.5 µM | [26] 11.2 µM | [27] 14.8 µM | [28] 12.4 µM | [29] 17.4 µM | [30] 16.2 µM | [31] 12.6 µM | [32] 14.2 µM | [33] 14.1 µM | [34] 24.7 µM | [35] 14.1 µM | [36] 16.3 µM | [37] 12.8 µM | [38] 15.7 µM | [39] 13.9 µM | [40] 14.1 µM | [41] 16.1 µM | [42] 13.8 µM | [43] 10.1 µM | [44] 15.6 µM | [45] 5.56 µM | [46] 10 µM | [47] 17.5 µM | [48] 15.5 µM | [49] 16.1 µM | [50] 16.4 µM | [51] 14.8 µM | [52] 21.3 µM
13.4 µM: [5]

CN(C)c1ccc2oc(=O)c3ccccc3c2c1
> 100 µM: [5]
inactive: [1] > 100 µM | [53] > 100 µM | [54] > 100 µM | [2] > 100 µM | [55] 24.3 µM | [3] 33.1 µM | [4] 30.5 µM | [6] 23.1 µM | [56] > 100 µM | [7] 46.7 µM | [8] > 100 µM | [9] > 100 µM | [10] 86.5 µM | [11] 35.2 µM | [12] 21 µM | [13] 27.5 µM | [14] > 100 µM | [15] > 100 µM | [16] 31.7 µM | [17] > 100 µM | [18] > 100 µM | [19] > 100 µM | [20] 34.4 µM | [21] 22.9 µM | [22] > 100 µM | [23] > 100 µM | [24] > 100 µM | [25] 28.9 µM | [27] > 100 µM | [28] > 100 µM | [57] 39.7 µM | [29] 28.6 µM | [30] 28.8 µM | [31] 20.4 µM | [32] > 100 µM | [33] > 100 µM | [34] 33.7 µM | [35] 17.1 µM | [38] > 100 µM | [39] 25.3 µM | [40] 99.8 µM | [41] > 100 µM | [43] > 100 µM | [44] 51.4 µM | [45] > 100 µM | [46] > 100 µM | [48] 40.9 µM | [58] 55.8 µM | [49] > 100 µM | [50] > 100 µM | [59] 34.8 µM | [51] > 100 µM | [52] 31.5 µM

COc1ccc(/C=C2\CCC(C)C3C2=NN(c2ccccc2)C3c2ccc(OC)c(OC)c2)cc1OC (configuration not stated)
3.01 µM: [5]
inactive: [1] 1.23 µM | [53] 4.97 µM | [2] 2.01 µM | [55] 3.84 µM | [3] 2.48 µM | [4] 3.48 µM | [6] 8 µM | [56] 1.54 µM | [7] 2.69 µM | [8] 4.22 µM | [9] 3.08 µM | [10] 3.61 µM | [13] 1.18 µM | [16] 7.29 µM | [17] 3.64 µM | [18] 5.04 µM | [19] 3.28 µM | [20] 3.24 µM | [21] 4.21 µM | [22] 2.65 µM | [24] 1.71 µM | [25] 3.94 µM | [26] 3.18 µM | [27] 4.34 µM | [28] 2.7 µM | [57] 3.22 µM | [29] 3.89 µM | [30] 2.64 µM | [31] 1.74 µM | [33] 1.87 µM | [34] 3.04 µM | [35] 4.19 µM | [36] 3.21 µM | [37] 2.46 µM | [38] 4.22 µM | [39] 4.33 µM | [40] 3.43 µM | [41] 3.01 µM | [42] 6.12 µM | [43] 3.5 µM | [44] 2.32 µM | [45] 3.94 µM | [46] 3.54 µM | [47] 4.23 µM | [48] 2.07 µM | [49] 4.66 µM | [50] 4.1 µM | [59] 3.42 µM | [51] 2.49 µM | [52] 3.23 µM
